Some results are limits rather than exact numbers.

The text below walks through data of patent US11780839B2, “Compounds for treating Huntington's disease” (PTC THERAPEUTICS, INC., priority 2018, dated 2023).

In this experiment the test system is Endogenous Huntingtin Protein. Nature of the experiment: Endogenous Huntingtin Protein Assay (ELISA-based Meso Scale Discovery electrochemiluminescence). The class given is cell-based. The settings on record: MSD electrochemiluminescence, Table 1. The essentials:
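Huntingtin was captured overnight at 4 °C on plates coated with 1 μg/mL MW1 (polyQ-expanded) or MAB2166 antibody and BSA-blocked. Detection used a rabbit monoclonal and then a SULFO-TAG goat anti-rabbit antibody (0.25 μg/mL, 1 h each, room temperature). Signal was read by electrochemiluminescence.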
As to `CN(c1cnc(-c2ccc(-c3ccccn3)cc2O)nn1)C1CC(C)(C)NC(C)(C)C1` [Cpd 393, 2-{6-[methyl(2,2,6,6-tetramethylpiperidin-4-yl)amino]-1,2,4-triazin-3-yl}-5-(pyridin-2-yl)phenol], the IC50 – broadly, the concentration needed to halve the response being measured – was no more than 0.1 µM.

The compound `Cc1ncc(-c2ccc(-c3cnc(NC4CC(C)(C)NC(C)(C)C4)nn3)c(O)c2)o1` [Cpd 277, 5-(2-methyl-1,3-oxazol-5-yl)-2-{3-[(2,2,6,6-tetramethylpiperidin-4-yl)amino]1,2,4-triazin-6-yl}phenol] yielded an IC50 of no more than 0.1 µM.

With `CC(C)(C)N[C@@H]1CC[C@@H]2CN(c3ncc(-c4ccc(-c5cn[nH]c5)cc4O)nn3)C[C@@H]21` [Cpd 193, 2-{3-[(3aR,4R,6aS)-4-(tert-butylamino)hexahydrocyclopenta[c]pyrrol-2(1H)-yl]-1,2,4-triazin-6-yl}-5-(1H-pyrazol-4-yl)phenol], the IC50 was 1 to 3 µM.

Take `Oc1cc(-c2cn[nH]c2)ccc1-c1cnc(N2CCN3CCC[C@H]3C2)nn1` [Cpd 116, 2-{3-[(8aS)-hexahydropyrrolo[1,2-a]pyrazin-2(1H)-yl]-1,2,4-triazin-6-yl}-5-(1H-pyrazol-4-yl)phenol]: the IC50 lay in the range of 0.1 to 0.5 µM. `Oc1cc(-c2cn[nH]c2)ccc1-c1cnc(N2CCC(NC3CCOCC3)C2)nn1` (stereo not shown) [Cpd 335, 2-(3-{3-[(oxan-4-yl)amino]pyrrolidin-1-yl}-1,2,4-triazin-6-yl)-5-(1H-pyrazol-4-yl)phenol] showed an IC50 of no more than 0.1 µM.

In turn, `CN(c1ncc(-c2ccc(-c3ccc4ncoc4c3)cc2O)nn1)C1CC(C)(C)NC(C)(C)C1` [Cpd 145, 5-(1,3-benzoxazol-6-yl)-2-{3-[methyl(2,2,6,6-tetramethylpiperidin-4-yl)amino]-1,2,4-triazin-6-yl}phenol] returned an IC50 of no more than 0.1 µM. The value for `CN1[C@@H]2CCC[C@H]1CC(Nc1ncc(-c3ccc(-c4cn[nH]c4)cc3O)nn1)C2` (stereo partly drawn) [Cpd 77, 2-{3-{[(1R,3s,5S)-9-methyl-9-azabicyclo[3.3.1]nonan-3-yl]amino}-1,2,4-triazin-6-yl)-5-(1H-pyrazol-4-yl)phenol] was no more than 0.1 µM.

As for `CCC(C)(C)NC1CCN(c2ncc(-c3ccc(-c4cn[nH]c4)cc3O)nn2)C1` (stereo not shown) [Cpd 154, 2-(3-{3-[(2-methylbutan-2-yl)amino]pyrrolidin-1-yl}-1,2,4-triazin-6-yl)-5-(1H-pyrazol-4-yl)phenol], the IC50 was no more than 0.1 µM. For the compound `CC1(C)CN(c2ncc(-c3ccc(-c4cn[nH]c4)cc3O)nn2)CC(C)(C)N1` [Cpd 282, 5-(1H-pyrazol-4-yl)-2-[3-(3,3,5,5-tetramethylpiperazin-1-yl)-1,2,4-triazin-6-yl]phenol], the 50% inhibitory concentration (IC50) is greater than 0.5 µM. The same measure for `CC(C)NC1CCN(c2ncc(-c3ccc(-c4cc(=O)n(C)cn4)cc3O)nn2)C1` (stereo not shown) [Cpd 234, 6-[3-hydroxy-4-(3-{3-[(propan-2-yl)amino]pyrrolidin-1-yl}-1,2,4-triazin-6-yl)phenyl]-3-methylpyrimidin-4(3H)-one]: 0.1 to 0.5 µM; for `CC1(C)CC(Oc2ncc(-c3ccc(-c4c[nH]nc4F)cc3O)nn2)CC(C)(C)N1` [Cpd 72, 5-(3-fluoro-1H-pyrazol-4-yl)-2-{3-[(2,2,6,6-tetramethylpiperidin-4-yl)oxy]-1,2,4-triazin-6-yl}phenol]: no more than 0.1 µM. On to `Oc1cc(-c2cn[nH]c2)ccc1-c1cnc(N2CC[C@H](CNC3CCOCC3)C2)nn1` [Cpd 398, 2-{3-[(3R)-3-{[(oxan-4-yl)amino]methyl}pyrrolidin-1-yl]-1,2,4-triazin-6-yl}-5-(1H-pyrazol-4-yl)phenol], for which the 50% inhibitory concentration (IC50) was no more than 0.1 µM.

As to `COc1cnn(-c2ccc(-c3cnc(N(C)C4CC(C)(C)NC(C)(C)C4)nn3)c(O)c2)c1` [Cpd 55, 5-(4-methoxy-1H-pyrazol-1-yl)-2-{3-[methyl(2,2,6,6-tetramethylpiperidin-4-yl)amino]-1,2,4-triazin-6-yl}phenol], the IC50 was no more than 0.1 µM. In turn, `Cc1ccnc(-c2ccc(-c3cnc(N(C)C4CC(C)(C)NC(C)(C)C4)nn3)c(O)c2)n1` [Cpd 129, 5-(4-methylpyrimidin-2-yl)-2-{3-[methyl(2,2,6,6-tetramethylpiperidin-4-yl)amino]-1,2,4-triazin-6-yl}phenol] showed an IC50 of 0.1 to 0.5 µM. Turning to `CN(c1ncc(-c2ccc(-n3cnc(C#N)c3)cc2O)nn1)C1CC(C)(C)NC(C)(C)C1` [Cpd 139, 1-(3-hydroxy-4-{3-[methyl(2,2,6,6-tetramethylpiperidin-4-yl)amino]-1,2,4-triazin-6-yl}phenyl)-1H-imidazole-4-carbonitrile], the IC50 is 0.1 to 0.5 µM. The value for `Cn1cc(-c2ccc(-c3cnc(N4CCC(CNC5CCC5)C4)nn3)c(O)c2)cn1` (stereo not shown) [Cpd 416, 2-(3-{3-[(cyclobutylamino)methyl}pyrrolidin-1-yl}-1,2,4-triazin-6-yl)-5-(1-methyl-1H-pyrazol-4-yl)phenol] was no more than 0.1 µM; that for `CC(C)(C)NC1CCN(c2ncc(-c3ccc(-c4ncco4)cc3O)nn2)C1` (stereo not shown) [Cpd 250, 2-{3-[3-(tert-butylamino)pyrrolidin-1-yl]-1,2,4-triazin-6-yl}-5-(1,3-oxazol-2-yl)phenol] was 0.1 to 0.5 µM. The compound `Cc1cc(-c2ccc(-c3cnc(N(C)C4CC(C)(C)NC(C)(C)C4)nn3)c(O)c2)nn2ccnc12` [Cpd 303, 5-(8-methylimidazo[1,2-b]pyridazin-6-yl)-2-{3-[methyl(2,2,6,6-tetramethylpiperidin-4-yl)amino]-1,2,4-triazin-6-yl}phenol] displayed an IC50 of no more than 0.1 µM. For the compound `CN(c1ncc(-c2ccc(-c3ccn(C)n3)c(O)c2O)nn1)C1CC(C)(C)NC(C)(C)C1` [Cpd 368, 3-(1-methyl-1H-pyrazol-3-yl)-6-{3-[methyl(2,2,6,6-tetramethylpiperidin-4-yl)amino]-1,2,4-triazin-6-yl}benzene-1,2-diol], the IC50 lay in the range of 0.1 to 0.5 µM. For the compound `C[C@H](CF)N[C@H]1CCN(c2ncc(-c3ccc(-c4cn[nH]c4)cc3O)nn2)C1` [Cpd 329, 2-{3-[(3S)-3-{[(2R)-1-fluoropropan-2-yl]amino}pyrrolidin-l-yl]-1,2,4-triazin-6-yl}-5-(1H-pyrazol-4-yl)phenol], the IC50 is 0.1 to 0.5 µM. Consider `CN(c1cnc(-c2ccc(-c3ncccn3)cc2O)nn1)C1CC(C)(C)NC(C)(C)C1` [Cpd 402, 2-{6-[methyl(2,2,6,6-tetramethylpiperidin-4-yl)amino]-1,2,4-triazin-3-yl}-5-(pyrimidin-2-yl)phenol], for which the IC50 was no more than 0.1 µM. The same measure for `CN(c1ncc(-c2ccc(-c3ccc4c(c3)nnn4C)cc2O)nn1)C1CC(C)(C)NC(C)(C)C1` [Cpd 200, 5-(1-methyl-1H-benzotriazol-5-yl)-2-{3-[methyl(2,2,6,6-tetramethylpiperidin-4-yl)amino]-1,2,4-triazin-6-yl}phenol]: no more than 0.1 µM; for `CC(C)(C)NC1CCN(c2cnc(-c3ccc(-c4cn[nH]c4)cc3O)nn2)C1` (stereo not drawn) [Cpd 363, 2-{6-[3-(tert-butylamino)pyrrolidin-l-yl]-1,2,4-triazin-3-yl}-5-(1H-pyrazol-4-yl)phenol]: no more than 0.1 µM. Compound `CCC1CC(Oc2ncc(-c3ccc(-c4cn[nH]c4)cc3O)nn2)CC(CC)N1` [Cpd 120, 2-{3-[(2R,4s,6S)-2,6-diethylpiperidin-4-yl]oxy}-1,2,4-triazin-6-yl)-5-(1H-pyrazol-4-yl)phenol] came in with an IC50 of 0.1 to 0.5 µM. The value for `CC1(NC2CCN(c3ncc(-c4ccc(-c5cn[nH]c5)cc4O)nn3)C2)CCOCC1` (stereo not drawn) [Cpd 362, 2-(3-{3-[(4-methyloxan-4-yl)amino]pyrrolidin-l-yl}-1,2,4-triazin-6-yl)-5-(1H-pyrazol-4-yl)phenol] was no more than 0.1 µM; that for `CN(c1ncc(-c2ccc(-c3ncnc(O)n3)cc2O)nn1)C1CC(C)(C)NC(C)(C)C1` [Cpd 33, 4-(3-hydroxy-4-{3-[methyl(2,2,6,6-tetramethylpiperidin-4-yl)amino]-1,2,4-triazin-6-yl}phenyl)-1,3,5-triazin-2-ol] was 1 to 3 µM; that for `CC1(C)CC(Nc2ncc(-c3ccc(Nc4cccnc4)cc3O)nn2)CC(C)(C)N1` [Cpd 315, 5-[(pyridin-3-yl)amino]2-{3-[(2,2,6,6-tetramethylpiperidin-4-yl)amino]-1,2,4-triazin-6-yl}phenol] was no more than 0.1 µM. The value for `Oc1cc(-c2cn[nH]c2)ccc1-c1cnc(N2CCC(NC3COC3)C2)nn1` (stereo not shown) [Cpd 312, 2-(3-{3-[(oxetan-3-yl)amino]pyrrolidin-1-yl}-1,2,4-triazin-6-yl)-5-(1H-pyrazol-4-yl)phenol] was 1 to 3 µM. For `CC1(C)CC(Nc2cnc(-c3ccc(-c4cn[nH]c4)cc3O)nn2)C(F)C(C)(C)N1` (stereo not shown) [Cpd 423, 2-{6-[(3-fluoro-2,2,6,6-tetramethylpiperidin-4-yl)amino]-1,2,4-triazin-3-yl}-5-(1H-pyrazol-4-yl)phenol], the IC50 is no more than 0.1 µM. The same measure for `CC1(C)C[C@H](Nc2ncc(-c3ccc(-c4ncns4)cc3O)nn2)[C@H](F)C(C)(C)N1` [Cpd 292, 2-(3-{[(3S,4S)-3-fluoro-2,2,6,6-tetramethylpiperidin-4-yl]amino}-1,2,4-triazin-6-yl)-5-(1,2,4-thiadiazol-5-yl)phenol]: no more than 0.1 µM; for `CC(C)(C)NC1CCN(c2ncc(-c3ccc(-c4c[nH]nn4)cc3O)nn2)C1` (stereo not shown) [Cpd 225, 2-{3-[3-(tert-butylamino)pyrrolidin-1-yl]-1,2,4-triazin-6-yl}-5-(1H-1,2,3-triazol-4-yl)phenol]: no more than 0.1 µM; for `Oc1cc(-c2cn[nH]c2)ccc1-c1cnc(N2CCC3(CCCNC3)CC2)nn1` [Cpd 180, 2-[3-(2,9-diazaspiro[5.5]undecan-9-yl)-1,2,4-triazin-6-yl]-5-(1H-pyrazol-4-yl)phenol]: 1 to 3 µM. The value for `CN(c1ncc(-c2ccc(-c3cncnc3)cc2O)nn1)C1CC(C)(C)NC(C)(C)C1` [Cpd 86, 2-{3-[methyl(2,2,6,6-tetramethylpiperidin-4-yl)amino]-1,2,4-triazin-6-yl}-5-(pyrimidin-5-yl)phenol] was 0.1 to 0.5 µM; that for `CN(c1ncc(-c2ccc(-c3ccn(C)n3)cc2O)nn1)C1CC(C)(C)NC(C)(C)C1` [Cpd 76, 5-(1-methyl-1H-pyrazol-3-yl)-2-{3-[methyl(2,2,6,6-tetramethylpiperidin-4-yl)amino]-1,2,4-triazin-6-yl}phenol] was no more than 0.1 µM.
